From ChEMBL document CHEMBL4177524, “Discovery of hepatitis B virus capsid assembly inhibitors leading to a heteroaryldihydropyrimidine based clinical candidate (GLS4)” (Bioorg Med Chem, 2017)

How the values were obtained:
[1] = target: Core antigen (Hepatitis B virus) (UniProt Q03732); test: Inhibition of hepatitis B virus capsid assembly infected in human HepG2.215 cells assessed as reduction in viral DNA replication measured on day 7 by real time PCR analysis; type: cell-based
[2] = Cytotoxicity in human HepG2.215 cells assessed as reduction in cell viability after 5 days by CCK8 assay; type: cell-based, HepG2 2.2.15; conditions: HepG2.2.15 cells

Sequence of Core antigen (Hepatitis B virus) (Q03732 as listed by the source): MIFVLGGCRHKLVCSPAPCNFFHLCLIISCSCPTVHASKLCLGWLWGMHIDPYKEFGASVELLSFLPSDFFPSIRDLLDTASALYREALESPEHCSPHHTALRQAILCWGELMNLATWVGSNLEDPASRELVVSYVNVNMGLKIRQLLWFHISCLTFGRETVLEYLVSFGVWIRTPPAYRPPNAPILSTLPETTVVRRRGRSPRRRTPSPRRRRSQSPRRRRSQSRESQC

SMILES	EC90 [1]	CC50 at 120 h [2]
COC(=O)C1=C(C)NC(c2nccs2)=N[C@H]1c1ccc(F)cc1Cl	300 nM	> 45 µM
COC(=O)C1=C(C)NC(c2ncc(F)cc2F)=N[C@H]1c1ccc(F)cc1Cl	102 nM	–
